Laboratory results: patent US20140315933A1, “CHEMICAL COMPOUNDS” (Pfizer Limited, priority 2013, published 2014)
Where a name gives a salt, the structure may show the parent alone.

Target: T1, URAT-1 transporter (Homo sapiens, UniProt Q96S37)
T1 construct: expressed in transfected cells
Assay: URAT-1 inhibitor activity: [14C]-uric acid uptake into CHO-URAT1(L)GFP#8 (CHO#8) cells, scintillation proximity
Assay type: cell-based
Excerpt: The nucleotide sequence for the long isoform of URAT1 (NM_144585) was C-terminally fused to that of enhanced green fluorescent protein (eGFP) (hereinafter referred to as URAT1(L)GFP). The combined sequence was codon-optimised and custom synthesized. The synthesized sequence was generated in pDONR221 Gateway entry vector (Invitrogen Life Technologies) prior to cloning in pLenti6.3/V5 Gateway destination vector (Invitrogen Life Technologies).
Lentiviral particles were generated according to ViraPower HiPerform expression system procedure (Invitrogen Life Technologies) and used to transduce CHO cells. Blasticidin selection enabled the generation of a stable clonal pool of cells, confirmed by expression of GFP and V5 epitope. The clonal pools were sorted using fluorescence-activated cell sorting (FACS) on the basis of GFP expression with the gating set at the top 50% of expression into single cells which were subsequently expanded to generate clonal lines. […] This cell line was used for all screening activities and is referred to as CHO-URAT1(L)GFP#8 or CHO#8.
The potency of the compounds of formula (I) as inhibitors of the URAT-1 transporter was determined as follows.
CHO#8 cells were cultured in cell line maintenance flasks in medium consisting of Dulbecco's modified Eagle medium (DMEM) with high glucose and sodium pyruvate (4.5 g of glucose per litre, Invitrogen Life Technologies), supplemented with heat-inactivated foetal bovine serum (FBC, 10% v/v), 1×NEAA (non-essential amino acids) and blasticidin (10 μg/ml). Cultures were grown in 175 cm^2 tissue culture flasks in a humidified incubator at approximately 37° C. in approximately 95% air/5% CO2. Near confluent CHO#8 cell cultures were harvested by trypsinisation, re-suspended in culture medium and the process was repeated once or twice weekly to provide sufficient cells for use.
Assay ready flasks were generated by the same method, except the cells were not cultured in blasticidin.
Assay ready frozen cells were generated by freezing 40,000,000 cells in 1 ml of FBS (without blasticidin) containing 10% DMSO per vial. One vial was sufficient for 5 assay plates. Each vial was thawed rapidly to 37° C., washed and re-suspended in pre-warmed culture medium for seeding onto assay plates.
CHO#8 cells were seeded onto Cytostar™ 96-well plates at a density of […]. The cells were cultured for 1 day at approximately 37° C. in a humidified incubator containing approximately 5% CO2 in air. After approximately 24 hours culture, cells were used for uptake experiments.
On the day of assay, culture medium was removed from the wells and the cells were washed once with 50 μL of chloride-containing buffer (136.7 mM NaCl, 5.36 mM KCl, 0.952 mM CaCl2, 0.441 mM KH2PO4, 0.812 mM MgSO4, 5.6 mM D-glucose, 0.383 mM Na2HPO4.2H2O, 10 mM HEPES, pH 7.4 with NaOH). The cells were pre-incubated with another 50 μL of chloride-containing buffer for one hour at approximately 37° C. in a humidified incubator containing approximately 5% CO2 in air.
Assay compound plates were prepared by diluting the compounds of formula (I) with chloride-free buffer (125 mM Na-gluconate, 4.8 mM K-gluconate, 1.3 mM Ca-gluconate, 1.2 mM KH2PO4, 1.2 mM MgSO4, 5.6 mM D-glucose, 25 mM HEPES, pH 7.4 with NaOH) in 100% DMSO to a final concentration of 1% DMSO. [^14C]-Uric Uric acid working stock was made by addition of radiolabeled compound to a final concentration of 120 nM in chloride-free buffer. In all wells, the final assay concentration of solvent (DMSO) was 0.25%; the final assay concentration of [^14C]-uric acid was 30 nM in chloride-free buffer and the final compound of formula (I) concentrations ranged from 0 to 10 μM.
After pre-incubation, cells were washed with 50 μL of chloride-free buffer and another 50 μL of chloride-free buffer was added. […]

T1 sequence (Q96S37 with tags, fused parts or gaps): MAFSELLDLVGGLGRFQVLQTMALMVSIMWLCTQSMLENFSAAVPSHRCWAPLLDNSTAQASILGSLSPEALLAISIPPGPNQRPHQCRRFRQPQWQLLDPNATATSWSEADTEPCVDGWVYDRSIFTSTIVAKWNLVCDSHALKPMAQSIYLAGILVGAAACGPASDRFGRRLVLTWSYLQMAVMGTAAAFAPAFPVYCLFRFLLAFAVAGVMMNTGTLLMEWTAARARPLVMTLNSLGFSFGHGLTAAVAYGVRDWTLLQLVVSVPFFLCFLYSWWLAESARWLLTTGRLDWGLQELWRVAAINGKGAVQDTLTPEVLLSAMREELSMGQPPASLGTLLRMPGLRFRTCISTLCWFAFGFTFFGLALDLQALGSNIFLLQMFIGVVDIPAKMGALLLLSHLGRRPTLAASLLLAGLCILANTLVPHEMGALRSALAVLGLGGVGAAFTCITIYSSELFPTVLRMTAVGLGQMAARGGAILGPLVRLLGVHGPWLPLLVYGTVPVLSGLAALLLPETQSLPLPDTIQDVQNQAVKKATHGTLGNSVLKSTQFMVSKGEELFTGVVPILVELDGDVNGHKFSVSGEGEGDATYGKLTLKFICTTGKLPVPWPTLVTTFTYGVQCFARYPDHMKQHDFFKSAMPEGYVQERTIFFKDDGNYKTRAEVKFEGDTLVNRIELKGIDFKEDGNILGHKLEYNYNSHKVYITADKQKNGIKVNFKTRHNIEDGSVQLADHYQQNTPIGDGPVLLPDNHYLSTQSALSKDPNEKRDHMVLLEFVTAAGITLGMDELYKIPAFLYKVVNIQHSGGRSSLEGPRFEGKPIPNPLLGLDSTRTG

| IC50 | SMILES |
| --- | --- |
| 5.39 µM | N#Cc1cc(F)ccc1Oc1ccc(S(=O)(=O)Nc2ncns2)cc1C#N [Example 47, 3-cyano-4-(2-cyano-4-fluorophenoxy)-N-(1,2,4-thiadiazol-5-yl)benzenesulfonamide] |
| 1.96 µM | N#Cc1cc(S(=O)(=O)Nc2ncns2)ccc1Oc1cccc(Cl)c1F [Example 48, 4-(3-chloro-2-fluorophenoxy)-3-cyano-N-(1,2,4-thiadiazol-5-yl)benzenesulfonamide] |
| 1.46 µM | N#Cc1cc(S(=O)(=O)Nc2ncns2)ccc1Oc1cccc(F)c1F [Example 49, 3-cyano-4-(2,3-difluorophenoxy)-N-(1,2,4-thiadiazol-5-yl)benzenesulfonamide] |
| 2.55 µM | N#Cc1cc(S(=O)(=O)Nc2ncns2)ccc1Oc1cc(F)ccc1F [Example 50, 3-cyano-4-(2,5-difluorophenoxy)-N-(1,2,4-thiadiazol-5-yl)benzenesulfonamide] |
| 2.14 µM | N#Cc1ccc(Oc2ccc(S(=O)(=O)Nc3ncns3)cc2C#N)c(F)c1 [Example 51, 3-cyano-4-(4-cyano-2-fluorophenoxy)-N-(1,2,4-thiadiazol-5-yl)benzenesulfonamide] |
| 0.65 µM | N#Cc1cc(S(=O)(=O)Nc2ncns2)ccc1Oc1ccc(Cl)cc1F [Example 52, 4-(4-chloro-2-fluorophenoxy)-3-cyano-N-(1,2,4-thiadiazol-5-yl)benzenesulfonamide] |
| 5.24 µM | N#Cc1cc(S(=O)(=O)Nc2ncns2)ccc1Oc1cccc(C(F)(F)F)c1F [Example 53, 3-cyano-4-[2-fluoro-3-(trifluoromethyl)phenoxy]-N-(1,2,4-thiadiazol-5-yl)benzenesulfonamide] |
| 2.85 µM | N#Cc1cc(S(=O)(=O)Nc2ncns2)ccc1Oc1cccc(C(F)(F)F)c1 [Example 54, 3-cyano-N-(1,2,4-thiadiazol-5-yl)-4-[3-(trifluoromethyl)phenoxy]benzene sulfonamide] |
| 0.59 µM | N#Cc1cc(S(=O)(=O)Nc2ncns2)ccc1Oc1cc(Cl)ccc1Cl [Example 55, 3-cyano-4-(2,5-dichlorophenoxy)-N-(1,2,4-thiadiazol-5-yl)benzenesulfonamide] |
| 2.12 µM | CCc1cc(F)ccc1Oc1ccc(S(=O)(=O)Nc2ncns2)c(C#N)c1 [Example 56, 2-cyano-4-(2-ethyl-4-fluorophenoxy)-N-(1,2,4-thiadiazol-5-yl)benzenesulfonamide] |
| 0.517 µM | [2H]C([2H])([2H])Oc1cc(Cl)ccc1Oc1ccc(S(=O)(=O)Nc2ncns2)cc1C#N [Example 57] |
| > 10 µM | Cn1cc(NS(=O)(=O)c2ccc(Oc3ccc(C#N)c(Cl)c3)c(C#N)c2)cn1 [Example 58, 4-(3-chloro-4-cyanophenoxy)-3-cyano-N-(1-methyl-1H-pyrazol-4-yl)benzenesulfonamide] |
| > 10 µM | Cc1cc(NS(=O)(=O)c2ccc(Oc3ccc(C#N)c(Cl)c3)c(C#N)c2)on1 [Example 59, 4-(3-chloro-4-cyanophenoxy)-3-cyano-N-(3-methyl-1,2-oxazol-5-yl)benzenesulfonamide] |
| > 8.78 µM | O=S(=O)(Nc1ncc(F)s1)c1ccc(Oc2ccc(Cl)cc2OC(F)(F)F)c(F)c1 [Example 60, 4-[4-chloro-2-(trifluoromethoxy)phenoxy]-3-fluoro-N-(5-fluoro-1,3-thiazol-2-yl)benzenesulfonamide] |
| > 10 µM | O=S(=O)(Nc1ncc(F)s1)c1ccc(Oc2ccc(Cl)cc2C(F)(F)F)c(F)c1 [Example 61, 4-[4-chloro-2-(trifluoromethyl)phenoxy]-3-fluoro-N-(5-fluoro-1,3-thiazol-2-yl)benzenesulfonamide] |
| 1.44 µM | CC(C)c1cccc(Oc2ccc(S(=O)(=O)Nc3ncns3)cc2Cl)c1 [Example 63, 3-chloro-4-[3-(propan-2-yl)phenoxy]-N-(1,2,4-thiadiazol-5-yl)benzenesulfonamide diethylamine salt] |

| IC50 | SMILES |
| --- | --- |
| 8.01 µM | N#Cc1ccc(Oc2ccc(S(=O)(=O)Nc3ncns3)cc2Cl)cc1 [Example 64, 3-chloro-4-(4-cyanophenoxy)-N-(1,2,4-thiadiazol-5-yl)benzenesulfonamide diethylamine salt] |
| 1.49 µM | O=S(=O)(Nc1ncns1)c1ccc(Oc2cccc(C(F)(F)F)c2F)c(Cl)c1 [Example 65, 3-chloro-4-[2-fluoro-3-(trifluoromethyl)phenoxy]-N-(1,2,4-thiadiazol-5-yl)benzenesulfonamide diethylamine salt] |
| 5.81 µM | CC(C)c1cccc(Oc2ccc(S(=O)(=O)Nc3nccs3)cc2F)c1 [Example 66, 3-fluoro-4-[3-(propan-2-yl)phenoxy]-N-(1,3-thiazol-2-yl)benzenesulfonamide] |
| > 7.58 µM | CC(C)c1cccc(Oc2cc(F)c(S(=O)(=O)Nc3nccs3)cc2F)c1 [Example 67, 2,5-difluoro-4-[3-(propan-2-yl)phenoxy]-N-(1,3-thiazol-2-yl)benzenesulfonamide] |
| > 8.47 µM | CC(C)c1cccc(Oc2cc(F)c(S(=O)(=O)Nc3ncc(F)s3)cc2F)c1 [Example 68, 2,5-difluoro-N-(5-fluoro-1,3-thiazol-2-yl)-4-[3-(propan-2-yl)phenoxy]benzenesulfonamide] |
| > 6.34 µM | CC(C)c1cccc(Oc2ccc(S(=O)(=O)Nc3ncc(F)s3)cc2F)c1 [Example 69, 3-fluoro-N-(5-fluoro-1,3-thiazol-2-yl)-4-[3-(propan-2-yl)phenoxy]benzenesulfonamide] |
| > 10 µM | O=S(=O)(Nc1nccs1)c1ccc(Oc2ccc(Cl)cc2OC(F)(F)F)c(F)c1 [Example 70, 4-[4-chloro-2-(trifluoromethoxy)phenoxy]-3-fluoro-N-(1,3-thiazol-2-yl)benzenesulfonamide] |
| > 10 µM | O=S(=O)(Nc1nccs1)c1ccc(Oc2ccc(Cl)cc2C(F)(F)F)c(F)c1 [Example 71, 4-[4-chloro-2-(trifluoromethyl)phenoxy]-3-fluoro-N-(1,3-thiazol-2-yl)benzenesulfonamide] |
| > 10 µM | CCc1cc(F)ccc1Oc1ccc(S(=O)(=O)Nc2nccs2)c(F)c1 [Example 72, 4-(2-ethyl-4-fluorophenoxy)-2-fluoro-N-(1,3-thiazol-2-yl)benzenesulfonamide] |
| > 10 µM | CC(C)c1cccc(Oc2ccc(S(=O)(=O)Nc3nccs3)c(F)c2)c1 [Example 73, 2-fluoro-4-[3-(propan-2-yl)phenoxy]-N-(1,3-thiazol-2-yl)benzenesulfonamide] |
| > 3.44 µM | Cc1cc(Oc2ccc(S(=O)(=O)Nc3nccs3)cc2F)ccc1F [Example 74, 3-fluoro-4-(4-fluoro-3-methylphenoxy)-N-(1,3-thiazol-2-yl)benzenesulfonamide] |
| > 10 µM | O=S(=O)(Nc1nccs1)c1ccc(Oc2ccccc2Br)c(F)c1 [Example 75, 4-(2-bromophenoxy)-3-fluoro-N-(1,3-thiazol-2-yl)benzenesulfonamide] |
| 0.093 µM | Cc1nocc1NS(=O)(=O)c1ccc(Oc2ccc(C#N)c(Cl)c2)c(C#N)c1 [Example 76, 4-(3-chloro-4-cyanophenoxy)-3-cyano-N-(3-methyl-1,2-oxazol-4-yl)benzenesulfonamide] |
| 0.16 µM | CCc1cc(F)ccc1Oc1ccc(S(=O)(=O)Nc2cscn2)cc1I [Example 77, 4-(2-ethyl-4-fluorophenoxy)-3-iodo-N-(1,3-thiazol-4-yl)benzenesulfonamide] |
| 0.165 µM | CCc1cc(F)ccc1Oc1cc(F)c(S(=O)(=O)Nc2cscn2)cc1Br [Example 78, 5-bromo-4-(2-ethyl-4-fluorophenoxy)-2-fluoro-N-(1,3-thiazol-4-yl)benzenesulfonamide] |
| > 10 µM | COc1cc(Cl)ccc1Oc1ccc(S(=O)(=O)Nc2cscn2)c(OC)c1 [Example 79, 4-(4-chloro-2-methoxyphenoxy)-2-methoxy-N-(1,3-thiazol-4-yl)benzenesulfonamide diethylamine salt] |
